# Experiment: Safety and tolerability in healthy human research participants (phase-1 study)
# Type: in vivo
# Procedure: Study design: The study was a three-part phase-1, randomized, placebo-controlled study of Compound-1F. The primary end-point was safety and tolerability. Secondary objectives were plasma pharmacokinetics data (part-1, part-2, part-3) and peripheral blood mononuclear cell MPP1 status (part-3).
# The first part (part-1) was a single ascending dose-effect study with three cohorts of 4 healthy research participants each, who received a single dose of 20 mg, 40 mg or 60 mg in subsequent cohorts. Three drug-treated and one placebo-treated subjects were randomized in each cohort (2 males, 2 females; age: 35-65 years). After completion of safety assessment, blood was drawn for analysis of pharmacokinetics data.
# In the second part (part-2) of the study, the daily dose was increased every two days until the final dose of 60 mg/day was reached, i.e. the daily dose was 20 mg on day-1 and day-2, 40 mg on day-3 and day-4, and 60 mg on day-5 until day-14. Blood was drawn before study begin for analysis of laboratory parameters and on day-14 for analysis of laboratory parameters and determination of pharmacokinetics data, at the indicated time points after administration of the last dose of 60 mg. All study participants (n=10; 7 males, 3 females; Caucasians; age: 37-66 years; 8 participants received drug, and two received placebo) were healthy and had the possibility to withdraw from the study at any time. All study participants wanted to complete the study.
# In the third part (part-3) of the study, a cohort of 8 healthy elderly voluntary research participants (7 males, 1 female; age 60-73 years; all Caucasians) received a daily oral dose of 60 mg of Compound-1F for 28 days (6 participants received drug, 2 placebo). In part-3 of the study, blood was drawn before study begin for analysis of clinical laboratory parameters and MPP1 status, and on day-28 for analysis of laboratory parameters and MPP1 status, and 24 h after the last drug intake for measurement of serum concentration of Compound-1F. All participants of part-3 had the possibility to withdraw from the study at any time but all study participants wanted to complete the study.
# The study participants were under the medical supervision of the Rabaa El Adaweya Medical Central Hospital, Cairo, Egypt (Clinical study director: Dr. Raafat Mahmood Fawzy). […] One participant in the placebo group and 1 participant in the drug treatment group (part-2 of the study) reported softer stools beginning on day-3 after drug/placebo intake. This side effect ended after completion of the study, and was most likely due to the intake of mannitol, which was used as an additive for formulation of study drug and placebo. There were no other adverse effects in part-1, part-2 and part-3 of the study.
# [1] = healthy humans, 14 days of repeated once daily oral dosing
smiles,measurement,setting,value
"O=C(C1=C(O)C(c2ccc(F)cc2)N(c2ccc3c(c2)OCO3)C1=O)C1CC1 (stereo not drawn) [Compound-1F, 1-(1,3-Benzodioxol-5-yl)-4-(cyclopropanecarbonyl)-2-(4-fluorophenyl)-3-hydroxy-2H-pyrrol-5-one]","clinical laboratory parameters and cardiovascular examination data (blood pressure, heart rate)","all research participants, during and after the study (observation period 4 weeks)",within the normal range
same,drug-related adverse events (safety assessment),"elderly participants, 28 days once daily 60 mg",no drug-related adverse events
same,clinical laboratory findings,"elderly participants, before and after 28 days of once daily 60 mg",within the normal range
same,percentage of neutrophils and lymphocytes,[1],within the normal range
same,total number of white blood cells,[1],not altered
same,"hematologic parameters (Hb, HCT, MCV, MCHC, RBCs) before vs after treatment","healthy humans, once daily 60 mg, 14 days of study",not significantly different
same,treatment related adverse effects (safety assessment),"healthy humans, oral Compound-1F, single ascending dose 20-60 mg",no treatment related adverse effects
same,"kidney (serum urea, creatinine) and liver (AST, ALT) function parameters","healthy humans, repeated once daily 60 mg/d",within the normal range
same,participants in the drug treatment group reporting softer stools,"part-2 of the study, beginning on day-3, attributed to mannitol",1 participant

# Source: US20210015793A1, “COMPOUNDS FOR TREATING CNS- AND NEURODEGENERATIVE DISEASES” (ETH ZURICH, priority 2018, published 2021)
